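Cultured in 96-well plates, cells were exposed to test compound for 48 hours across five concentrations. GI50 marks 50% less growth.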 Active and inactive are the calls of the source. No stated cut-off is given here; in the data, active = GI50 up to about 1.1 µM and inactive = higher.
Tests used:
Test in all cases: NCI tumour cell line growth inhibition, 48 h
NCI-H23 = tested on: NCI-H23
K562 = tested on: K562
SK-MEL-28 = tested on: SK-MEL-28
SF-539 = tested on: SF-539
TK-10 = tested on: TK-10
MDA-MB-435 = tested on: MDA-MB-435
A549 = tested on: A549
SK-MEL-2 = tested on: SK-MEL-2
MOLT-4 = tested on: MOLT-4
SNB-75 = tested on: SNB-75
SF-268 = tested on: SF-268
T47D = tested on: T47D
UACC-257 = tested on: UACC-257
COLO 205 = tested on: COLO 205
MDA-MB-231 = tested on: MDA-MB-231
BT-549 = tested on: BT-549
SNB-19 = tested on: SNB-19
NCI-H460 = tested on: NCI-H460
CCRF-CEM = tested on: CCRF-CEM

Measured: GI50

COc1cc(C2SCC(=O)N2NC(=O)c2ccc(NC(C)=O)cc2)cc(OC)c1OC (configuration not stated)
inactive: NCI-H23 > 100 µM | K562 35.8 µM | SK-MEL-28 > 100 µM | SF-539 > 100 µM | TK-10 > 100 µM | MDA-MB-435 > 100 µM | A549 > 100 µM | SK-MEL-2 > 100 µM | MOLT-4 > 100 µM | SNB-75 > 100 µM | SF-268 > 100 µM | T47D > 100 µM | UACC-257 > 100 µM | COLO 205 > 100 µM | MDA-MB-231 > 100 µM | BT-549 > 100 µM | SNB-19 > 100 µM | NCI-H460 > 100 µM

NCCCN1CCN(c2ccccc2)CC1
inactive: K562 > 100 µM | SK-MEL-28 > 100 µM | TK-10 > 100 µM | MDA-MB-435 51.2 µM | A549 > 100 µM | SK-MEL-2 > 100 µM | MOLT-4 79.3 µM | SNB-75 > 100 µM | SF-268 > 100 µM | T47D > 100 µM | UACC-257 > 100 µM | COLO 205 78.7 µM | MDA-MB-231 > 100 µM | BT-549 > 100 µM | SNB-19 > 100 µM | NCI-H460 > 100 µM

COC(=O)Nc1cc(OCCCOC(C)=O)c2[nH]c(C(=O)OC)cc2c1C[C@H](O)CO
inactive: NCI-H23 > 100 µM | SK-MEL-28 > 100 µM | SF-539 > 100 µM | TK-10 > 100 µM | MDA-MB-435 > 100 µM | A549 > 100 µM | CCRF-CEM > 100 µM | SK-MEL-2 > 100 µM | MOLT-4 > 100 µM | T47D > 100 µM | UACC-257 > 100 µM | COLO 205 > 100 µM | MDA-MB-231 > 100 µM | BT-549 54.7 µM | SNB-19 > 100 µM

c1ccc(C(CCN2CC3CCC(CC3)C2)c2ccccc2)cc1
inactive: NCI-H23 18 µM | K562 18.4 µM | SK-MEL-28 41.1 µM | SF-539 16 µM | TK-10 23.1 µM | MDA-MB-435 25.1 µM | A549 31.2 µM | SK-MEL-2 20.5 µM | MOLT-4 18.2 µM | SNB-75 24.2 µM | SF-268 25.6 µM | T47D 20 µM | UACC-257 16.2 µM | COLO 205 12.6 µM | MDA-MB-231 18.9 µM | BT-549 42.2 µM | SNB-19 34.4 µM | NCI-H460 15 µM

COc1ccc(C(=O)O[C@@H]2CCN3CC[C@H](C)[C@H]23)cc1
inactive: NCI-H23 > 100 µM | SK-MEL-28 > 100 µM | SF-539 > 100 µM | TK-10 > 100 µM | MDA-MB-435 > 100 µM | A549 > 100 µM | SK-MEL-2 > 100 µM | MOLT-4 > 100 µM | SNB-75 > 100 µM | SF-268 > 100 µM | T47D > 100 µM | UACC-257 > 100 µM | COLO 205 > 100 µM | MDA-MB-231 > 100 µM | BT-549 > 100 µM | SNB-19 > 100 µM | NCI-H460 > 100 µM

CC1=CC(=O)N(n2c(Cc3ccccc3)n[nH]c2=O)C1=O
inactive: NCI-H23 > 100 µM | K562 71.9 µM | SF-539 > 100 µM | TK-10 > 100 µM | MDA-MB-435 > 100 µM | A549 > 100 µM | CCRF-CEM 23.3 µM | SK-MEL-2 > 100 µM | MOLT-4 33.9 µM | SF-268 > 100 µM | T47D 98.4 µM | UACC-257 > 100 µM | COLO 205 > 100 µM | MDA-MB-231 > 100 µM | BT-549 > 100 µM | SNB-19 > 100 µM | NCI-H460 > 100 µM

C[C@@]12C=CC3C/C(=N\C(N)=S)C=C(CCCC4OCCO4)[C@]3(CC1)C2 (some centres not stated)
inactive: NCI-H23 21.3 µM | K562 17.9 µM | SK-MEL-28 18 µM | SF-539 17.9 µM | TK-10 20.6 µM | MDA-MB-435 16.9 µM | A549 21.1 µM | SK-MEL-2 16.9 µM | MOLT-4 9.44 µM | SNB-75 28.6 µM | SF-268 29.4 µM | T47D 22.1 µM | UACC-257 18.8 µM | COLO 205 13.2 µM | MDA-MB-231 20.3 µM | BT-549 16.9 µM | SNB-19 34.5 µM | NCI-H460 15.6 µM

O=C(/C=C/C(=O)N1CCCC1)N1CCCC1
inactive: NCI-H23 > 100 µM | K562 > 100 µM | SK-MEL-28 > 100 µM | SF-539 > 100 µM | TK-10 > 100 µM | MDA-MB-435 > 100 µM | A549 > 100 µM | CCRF-CEM > 100 µM | SK-MEL-2 > 100 µM | MOLT-4 > 100 µM | SF-268 > 100 µM | T47D > 100 µM | UACC-257 > 100 µM | COLO 205 > 100 µM | MDA-MB-231 > 100 µM | BT-549 > 100 µM | SNB-19 > 100 µM | NCI-H460 > 100 µM

CCOC(=O)/C(C(=O)Nc1ccc(F)cc1)=C(/N)N1CCOCC1
inactive: NCI-H23 > 100 µM | K562 > 100 µM | SK-MEL-28 > 100 µM | TK-10 > 100 µM | MDA-MB-435 > 100 µM | A549 > 100 µM | CCRF-CEM > 100 µM | SK-MEL-2 > 100 µM | MOLT-4 > 100 µM | SNB-75 > 100 µM | SF-268 > 100 µM | T47D > 100 µM | UACC-257 > 100 µM | COLO 205 > 100 µM | MDA-MB-231 > 100 µM | BT-549 > 100 µM | SNB-19 > 100 µM | NCI-H460 > 100 µM

Clc1ccccc1NN(Cc1ccccn1)c1ccccc1Cl
inactive: NCI-H23 20 µM | K562 17.3 µM | SK-MEL-28 20.5 µM | SF-539 18.7 µM | MDA-MB-435 16.6 µM | A549 16.7 µM | SK-MEL-2 17.1 µM | MOLT-4 17.3 µM | SNB-75 20.1 µM | SF-268 22.7 µM | T47D 27.4 µM | COLO 205 15.6 µM | MDA-MB-231 23.4 µM | BT-549 25.1 µM | SNB-19 27.9 µM

COC(=O)[C@]12CCC(C)(C)C[C@H]1C1=CC[C@@H]3[C@@]4(C)CC[C@H](OC5OC(CO)C(O)C(O)C5OC5OC(CO)C(O)C(O)C5O)C(C)(C)[C@@H]4CC[C@@]3(C)[C@]1(C)CC2 (some centres not stated)
inactive: NCI-H23 7.08 µM | K562 10.1 µM | SK-MEL-28 3.37 µM | MDA-MB-435 7.6 µM | A549 8.83 µM | CCRF-CEM 15.7 µM | SK-MEL-2 10.7 µM | MOLT-4 17.5 µM | SNB-75 13.5 µM | SF-268 13.7 µM | T47D 18.3 µM | UACC-257 7.85 µM | COLO 205 3.09 µM | MDA-MB-231 2.65 µM | BT-549 17.4 µM | SNB-19 14.3 µM | NCI-H460 14.5 µM
